One series relates to Mice. Put plainly: Marble Burying Test (anxiolytic/tranquillizing activity). It counts as in vivo. To be noted: 30 minutes before the test, 30 minute test. Here is the method: Nefopam and (+)-nefopam were evaluated in the Marble Burying Test, a model which detects anxiolytic/tranquillizing activity. This is a general model for affective disorders.
The method follows that described by Broekkamp et al. (1986 Eur. J. Pharmacol., 126, 223-229. Mice exposed to novel objects (marbles) will bury them in the sawdust floor covering. Anxiolytics decrease the number of marbles buried at non-sedative doses.
Mice are individually placed in transparent plastic cages (33×21×18 cm) with 5 cm of sawdust on the floor and 25 marbles grouped in the centre of each cage. Each test cage is covered with an inverted plastic covering. Each test cage, together with the marbles, is impregnated with mouse odor beforehand, by leaving 10 mice in the cage for 15 minutes. These mice then play no further role in the experiment. The number of marbles covered by sawdust (⅔ or more) is counted at the end of a 30 minute test.
All compounds were administered i.p. 30 minutes before the test, and compared with a vehicle control group. Clobazam (8 mg/kg i.p.), administered under the same experimental conditions, was used as reference substance.

The subject of series [1] is dopamine, norepinephrine and serotonin uptake. To be noted: in vitro and in vivo; Fasmer et al., 1987; Rosland and Hole, 1990; Mather at al., 2001; cited from earlier work.
The conditions of series [2]: conventional release preparations; cited from earlier work.

Counter-ions that a name gives are not always drawn. Marks after values point to notes of the source that are not given here.

Regarding `CN1CCO[C@@H](c2ccccc2)c2ccccc2C1` [(+)-nefopam], the results for the “Number of marbles buried (% change from ctrl)” value (“Number … (% change from ctrl)” below) with Mice (10 mg/kg ip), in the series with Mice (20 mg/kg ip) and in the series on Mice (40 mg/kg ip) were −56* % change from ctrl, −99* % change from ctrl and −100* % change from ctrl, respectively. The “order of potency (analgesic and dopamine, norepinephrine and serotonin uptake inhibitory properties)” value in series [1] was “(+)-nefopam>(±)-nefopam>(−)-nefopam”.

As to `CN1C(=O)CC(=O)N(c2ccccc2)c2cc(Cl)ccc21` [Clobazam], in the series with Mice (32 mg/kg ip), the “Number … (% change from ctrl)” value is on record as −75* % change from ctrl.

Take `CN1CCOC(c2ccccc2)c2ccccc2C1` (racemic) [Nefopam, 5-methyl-1-phenyl-3,4,5,6-tetrahydro-1H-2,5-benzoxazocine hydrochloride]: the “Number … (% change from ctrl)” value in the series with Mice (10 mg/kg ip) is listed as −66* % change from ctrl; in the series with Mice (20 mg/kg ip) it was −98* % change from ctrl; in the series on Mice (40 mg/kg ip) it was −100* % change from ctrl. Moreover, the elimination half-life result in series [2] is “four”.
